# Assay results taken from article PMC6370589 (ChemMedChem, 2018).
# “Also recorded” adds a separate entry of the source.
# Key:
# in vitro = settings: human
# [1] = test system: phosphorylated CDK1 at Tyr15; test: pCDK1; format: cell-based; settings: Daoy, 24 h; for change in pCDK1(Tyr15) level vs DMSO control: 220 nM, n=3; for pCDK1 ELISA dose-response: 1 μM to 62 nM, EC50 values not determinable
# recombinant PLK1 kinase = recombinant PLK1 kinase (Homo sapiens, UniProt P53350); test: PLK1 recombinant kinase LANCE TR-FRET assay; format: biochemical
# Chain of recombinant PLK1 kinase (P53350 whole entry): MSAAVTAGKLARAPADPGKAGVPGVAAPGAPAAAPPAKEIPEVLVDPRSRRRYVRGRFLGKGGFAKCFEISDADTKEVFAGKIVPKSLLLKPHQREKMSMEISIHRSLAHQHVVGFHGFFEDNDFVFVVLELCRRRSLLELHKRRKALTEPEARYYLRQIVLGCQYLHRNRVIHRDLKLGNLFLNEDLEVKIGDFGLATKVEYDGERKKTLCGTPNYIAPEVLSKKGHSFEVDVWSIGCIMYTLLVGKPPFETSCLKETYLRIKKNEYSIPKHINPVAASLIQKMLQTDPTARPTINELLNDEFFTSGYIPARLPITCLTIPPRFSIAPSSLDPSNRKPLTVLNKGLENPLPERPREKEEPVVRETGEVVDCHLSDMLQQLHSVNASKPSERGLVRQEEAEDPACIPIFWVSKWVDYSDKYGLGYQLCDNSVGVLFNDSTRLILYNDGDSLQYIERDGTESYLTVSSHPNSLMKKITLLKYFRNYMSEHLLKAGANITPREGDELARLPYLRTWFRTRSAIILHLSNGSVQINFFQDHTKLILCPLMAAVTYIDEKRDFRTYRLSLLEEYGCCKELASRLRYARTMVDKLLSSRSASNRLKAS
# Daoy cells [2] = settings: for concentration with appreciable cytotoxicity, not before 48 hours: from 48 h
# Daoy cells [3] = test: MTS cellular metabolic viability assay, Daoy; format: cell-based
# ONS-76 cells = test: MTS cellular metabolic viability assay, ONS-76; format: cell-based; settings: ONS-76, 72 h
# recombinant WEE1 = recombinant WEE1 (Homo sapiens, UniProt P30291); test: WEE1 recombinant kinase TR-FRET; format: binding
# Chain of recombinant WEE1 (P30291 whole entry): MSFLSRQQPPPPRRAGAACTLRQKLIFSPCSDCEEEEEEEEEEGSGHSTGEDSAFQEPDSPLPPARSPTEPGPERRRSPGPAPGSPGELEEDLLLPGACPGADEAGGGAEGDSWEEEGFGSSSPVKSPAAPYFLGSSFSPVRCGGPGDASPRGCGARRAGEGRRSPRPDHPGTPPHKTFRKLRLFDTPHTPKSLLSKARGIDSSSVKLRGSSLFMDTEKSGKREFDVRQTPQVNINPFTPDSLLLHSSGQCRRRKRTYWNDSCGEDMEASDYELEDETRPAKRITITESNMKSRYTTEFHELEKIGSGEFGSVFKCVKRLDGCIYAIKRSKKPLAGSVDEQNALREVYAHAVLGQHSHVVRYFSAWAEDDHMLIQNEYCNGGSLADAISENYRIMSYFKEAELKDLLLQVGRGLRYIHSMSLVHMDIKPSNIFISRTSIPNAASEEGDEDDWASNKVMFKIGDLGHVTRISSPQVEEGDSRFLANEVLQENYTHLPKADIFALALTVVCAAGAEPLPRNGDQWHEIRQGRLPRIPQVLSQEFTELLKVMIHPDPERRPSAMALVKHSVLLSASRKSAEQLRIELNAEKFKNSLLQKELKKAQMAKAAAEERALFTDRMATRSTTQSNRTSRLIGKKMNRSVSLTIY
# 8 other kinases = settings: 1.0 μM, profile of 223 kinases; cited from earlier work
# [4] = test system: phosphorylated CDK1 at Tyr15; settings: read-out: pCDK1 ELISA EC50; Daoy; previously determined; cited from earlier work
# WEE1 = settings: read-out: WEE1 IC50; radiolabeled ATP kinase assay; cited from earlier work
# [5] = test system: advanced refractory solid tumors; settings: Phase I, single agent; cited from earlier work
# [6] = biological target: Src family tyrosine kinase YES1; settings: read-out: YES1 IC50; radiolabeled ATP kinase assay; cited from earlier work
compound,measurement,setting,value
"C=CCn1c(=O)c2cnc(Nc3ccc(CCN(C)C)cc3)nc2n1-c1cccc(C(C)(C)O)n1 [Compound 28, 2-allyl-6-((4-(2-(dimethylamino)ethyl)phenyl)amino)-1-(6-(2-hydroxypropan-2-yl)pyridin-2-yl)-1,2-dihydro-3H-pyrazolo[3,4-d]pyrimidin-3-one]",EC50 at 72 h,in vitro,651 ± 16 nM
same,change in pCDK1(Tyr15) level vs DMSO control,[1],statistically significant decrease in pCDK1 levels
same,pCDK1 ELISA dose-response,[1],comparable effects on pCDK1 levels
same,IC50,recombinant PLK1 kinase,270 ± 29 nM
same,concentration with some cytotoxicity within 24 hours,Daoy cells [2]; 24 h,1200 nM
"C=CCn1c(=O)c2cnc(Nc3ccc(OCCN(C)C)cc3)nc2n1-c1cccc(C(C)(C)O)n1 [Compound 29, 2-allyl-6-((4-(2-(dimethylamino)ethoxy)phenyl)amino)-1-(6-(2-hydroxypropan-2-yl)pyridin-2-yl)-1,2-dihydro-3H-pyrazolo[3,4-d]pyrimidin-3-one]",change in pCDK1(Tyr15) level vs DMSO control,[1],statistically significant decrease in pCDK1 levels
same,pCDK1 ELISA dose-response,[1],comparable effects on pCDK1 levels
same,IC50,recombinant PLK1 kinase,161 ± 10 nM
same,CellTox Green dose-response / EC50 determination,"Daoy cells [2]; 72 h, up to 2400 nM",Sigmoidal dose-response curves were not obtained; also recorded: did not display sufficient cytotoxicity for EC50 determination
same,"concentration with appreciable cytotoxicity, not before 48 hours",Daoy cells [2],> 300 nM
same,"MTS % effect (activity) at 600 nM, Daoy","Daoy cells [3]; 72 h, 600 nM",81%
"C=CCn1c(=O)c2cnc(Nc3ccc(N4CCN(C)CC4)cc3)nc2n1-c1cccc(C(C)(C)O)c1 [Compound 31, 2-allyl-1-(3-(2-hydroxypropan-2-yl)phenyl)-6-((4-(4-methylpiperazin-1-yl)phenyl)amino)-1,2-dihydro-3H-pyrazolo[3,4-d]pyrimidin-3-one]",change in pCDK1(Tyr15) level vs DMSO control,[1],did not cause a significant reduction in pCDK1 levels
same,IC50,recombinant PLK1 kinase,394 ± 37 nM
same,"concentration with appreciable cytotoxicity, not before 48 hours",Daoy cells [2],> 300 nM
same,"MTS % effect at 1.16 μM, ONS-76",ONS-76 cells,57%
"C=CCn1c(=O)c2cnc(Nc3ccccc3)nc2n1-c1cccc(C(C)(C)O)n1 [Compound 24, 2-allyl-1-(6-(2-hydroxypropan-2-yl)pyridin-2-yl)-6-(phenylamino)-1,2-dihydro-3H-pyrazolo[3,4-d]pyrimidin-3-one]",change in pCDK1(Tyr15) level vs DMSO control,[1],significant increases in pCDK1 levels
"C=CCn1c(=O)c2cnc(Nc3cccc(N(C)C)c3)nc2n1-c1cccc(C(C)(C)O)n1 [Compound 25, 2-allyl-6-((3-(dimethylamino)phenyl)amino)-1-(6-(2-hydroxypropan-2-yl)pyridin-2-yl)-1,2-dihydro-3H-pyrazolo[3,4-d]pyrimidin-3-one]",change in pCDK1(Tyr15) level vs DMSO control,[1],significant increases in pCDK1 levels
"C=C(C)c1cccc(-n2[nH]c(=O)c3cnc(Nc4ccc(N5CCN(C)CC5)cc4)nc32)n1 [Compound 34, 6-((4-(4-methylpiperazin-1-yl)phenyl)amino)-1-(6-(prop-1-en-2-yl)pyridin-2-yl)-1,2-dihydro-3H-pyrazolo[3,4-d]pyrimidin-3-one]",IC50,recombinant WEE1,190 ± 12 nM
"C=CCn1c(=O)c2cnc(Nc3ccc(N4CCN(C)CC4)cc3)nc2n1-c1cccc(C(C)(C)O)n1 [AZD1775, 2-allyl-1-(6-(2-hydroxypropan-2-yl)pyridin-2-yl)-6-((4-(4-methylpiperazin-1-yl)phenyl)amino)-1,2-dihydro-3H-pyrazolo[3,4-d]pyrimidin-3-one, reference compound]",EC50 at 72 h,in vitro; Daoy cells,188 ± 26 nM
same,inhibition of 8 other kinases,8 other kinases,> 80%
same,change in pCDK1(Tyr15) level vs DMSO control,[1],statistically significant decrease in pCDK1 levels
same,pCDK1 ELISA dose-response,[1],comparable effects on pCDK1 levels
same,IC50,recombinant PLK1 kinase,77.6 ± 9.3 nM
same,concentration with cytotoxic effects within 24 hours,Daoy cells [2]; 24 h,> 600 nM
same,concentration with cytotoxic effects after 72 hours,Daoy cells [2]; 72 h,> 75 nM
same,EC50,[4],220 nM
same,IC50,WEE1,5 nM
same,dose-limiting toxicities,[5],supraventricular tachyarrhythmia and myelosuppression
same,IC50,[6],14 nM
same,EC50,"Daoy cells [3]; Homo sapiens, read-out: MTS EC50 used to set the concentration range, Daoy",150 nM
